Data: patent US12492173B2, “Herbicidal substituted N-tetrazolyl aryl carboxamides” (Bayer Aktiengesellschaft, priority 2019, dated 2025)

Columns and labels:
Type in all cases: in vivo
[1] = system: Setaria viridis; assay: Post-emergence herbicidal action, SETVI; design: key: % herbicidal action vs untreated; 100 = plants died, 0 = like control; conditions: for Herbicidal action against SETVI: comparative experiment
Summary of the method: (§1)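 Greenhouse post-emergence test: weeds sown in sandy loam were sprayed once at one leaf, 2 to 3 weeks from sowing, with aqueous WP or EC preparations carrying 0.2% wetting agent. Effect is scored visually after about 3 weeks.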

[2] = system: Alopecurus myosuroides; assay: Post-emergence herbicidal action, ALOMY; design: key: % herbicidal action vs untreated; 100 = plants died, 0 = like control
Summary of the method: as §1

[3] = system: Stellaria media; assay: Pre-emergence herbicidal action, STEME; design: key to Herbicidal action against STEME: % activity: 100 = plants have died, 0 = like control plants; conditions: for herbicidal activity STEME: dosage 320 g/ha, scored visually after 3 weeks vs untreated controls (100% = plants have died); for Herbicidal action against STEME: comparative experiment
Summary of the method: (§2)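 Percent damage, assessed visually after 3 weeks and referenced to untreated controls, reflects a pre-emergence treatment. Spray liquid equated to 600 to 800 l/ha with 0.2% wetting agent, applied to the covering soil over seeds in sandy loam.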

[4] = system: Abutilon theophrasti; assay: Pre-emergence herbicidal action, ABUTH; design: key to Herbicidal action against ABUTH: % activity: 100 = plants have died, 0 = like control plants; conditions: for herbicidal activity ABUTH: scored visually after 3 weeks vs untreated controls (100% = plants have died); for Herbicidal action against ABUTH: comparative experiment
Summary of the method: as §2

[5] = system: Amaranthus retroflexus; assay: Pre-emergence herbicidal action, AMARE; design: key to Herbicidal action against AMARE: % activity: 100 = plants have died, 0 = like control plants; conditions: for herbicidal activity AMARE: scored visually after 3 weeks vs untreated controls (100% = plants have died); for Herbicidal action against AMARE: comparative experiment, 20 g of a.i./ha
Summary of the method: as §2

[6] = system: Pharbitis purpurea; assay: Pre-emergence herbicidal action, PHBPU; conditions: for herbicidal activity PHBPU: scored visually after 3 weeks vs untreated controls (100% = plants have died)
Summary of the method: as §2

| SMILES | herbicidal action SETVI ([1]; post-emergence, dosage 80 g/ha) [%] | herbicidal action ALOMY ([2]; post-emergence, dosage 80 g/ha) [%] | herbicidal activity STEME [3] [%] | herbicidal activity ABUTH ([4]; dosage 320 g/ha) [%] | herbicidal activity AMARE ([5]; dosage 320 g/ha) [%] | herbicidal activity PHBPU ([6]; dosage 320 g/ha) [%] | herbicidal action SETVI ([1]; Dosage 80 g/ha) | other results |
| --- | --- | --- | --- | --- | --- | --- | --- | --- |
| CC[S+]([O-])Cc1c(C(F)(F)F)ccc(C(=O)Nc2nnnn2C)c1Cl (racemic) [Example 1-300] | 90 | 90 | 100 | 100 | 100 | 100 | – | – |
| Cn1nnnc1NC(=O)c1ccc(C(F)(F)F)c(C[S+]([O-])C2CC2)c1Cl (racemic) [Example 1-303] | 100 | 100 | 100 | 100 | 100 | 100 | – | – |
| COCC[S+]([O-])Cc1c(C(F)(F)F)ccc(C(=O)Nc2nnnn2C)c1Cl (racemic) [Example 1-306] | – | – | 100 | 100 | 100 | 90 | 90 | herbicidal action ALOMY ([2]; Dosage 80 g/ha): 90 |
| Cn1nnnc1NC(=O)c1ccc(C(F)(F)F)c(C[S+]([O-])CC(F)(F)F)c1Cl (racemic) [Example 1-312] | 100 | 90 | 100 | 100 | 100 | 90 | – | – |
| Cn1nnnc1NC(=O)c1ccc(I)c(C[S+](C)[O-])c1Cl (racemic) [Example 1-363] | 100 | 90 | 100 | 100 | 100 | 100 | – | Herbicidal action against STEME ([3]; 20 g of a.i./ha): 100; Herbicidal action against ABUTH ([4]; 20 g of a.i./ha): 100; Herbicidal action against AMARE [5]: 100 |
| CC[S+]([O-])Cc1c(C(F)(F)F)ccc(C(=O)Nc2nnnn2C)c1Br (racemic) [Example 1-384] | 90 | 90 | 100 | 100 | 100 | 90 | – | Herbicidal action against SETVI ([1]; post-emergence, 20 g of a.i./ha): 90; Herbicidal action against STEME ([3]; 80 g of a.i./ha): 100; Herbicidal action against ABUTH ([4]; 80 g of a.i./ha): 100 |
| CSCc1c(C(F)(F)F)ccc(C(=O)Nc2nnnn2C)c1C [Example 1-83] | 100 | 80 | 100 | 100 | 100 | 80 | – | – |
| CCS(=O)(=O)Cc1c(C(F)(F)F)ccc(C(=O)Nc2nnnn2C)c1C [Example 1-88] | – | – | – | – | – | – | 90 | herbicidal action ALOMY ([2]; Dosage 80 g/ha): 80; herbicidal action ABUTH ([4]; dosage 320 g/ha): 100%; herbicidal action AMARE ([5]; dosage 320 g/ha): 100%; herbicidal action PHBPU ([6]; dosage 320 g/ha): 90% |
| CSc1c(C(=O)Nc2nnnn2C)ccc(C(F)(F)F)c1C[S+](C)[O-] (stereo not drawn) [Example 1-162] | 100 | 100 | 100 | 100 | 100 | 90 | – | Herbicidal action against ABUTH ([4]; 20 g of a.i./ha): 100; Herbicidal action against AMARE [5]: 100; Herbicidal action against PHBPU ([6]; comparative experiment, 20 g of a.i./ha): 60 |
| CSc1c(C(=O)Nc2nnnn2C)ccc(C(F)F)c1C[S+](C)[O-] (stereo not drawn) [Example 1-171] | – | – | 100 | 100 | 100 | 90 | 100 | herbicidal action ALOMY ([2]; Dosage 80 g/ha): 80 |
| CCSCc1c(C(F)(F)F)ccc(C(=O)Nc2nnnn2C)c1SCC [Example 1-182] | – | – | 90 | 100 | 100 | 80 | 90 | Herbicidal action against SETVI ([1]; post-emergence, 5 g of a.i./ha): 70; Herbicidal action against STEME ([3]; 20 g of a.i./ha): 90; Herbicidal action against AMARE [5]: 70 |
| CCSCc1c(C(F)(F)F)ccc(C(=O)Nc2nnnn2C)c1Cl [Example 1-299] | 90 | 90 | 100 | 100 | 100 | 90 | – | Herbicidal action against ALOMY ([2]; comparative experiment, post-emergence, 5 g of a.i./ha): 70; Herbicidal action against ABUTH ([4]; 20 g of a.i./ha): 90 |
| Cn1nnnc1NC(=O)c1ccc(C(F)(F)F)c(CSC2CC2)c1Cl [Example 1-302] | 100 | 100 | 100 | 100 | 100 | 100 | – | – |
